Assay results published in US6875448B1, “Method of intracellular sustained-release of drug and preparations” (Chugai Seiyaku Kabushiki Kaisha, priority 1999, dated 2005).

Test system: Ltk− cells
Assay: Efficiency of introduction into cells with the aid of Ca2+ indicator
Type: cell-based, mouse
Conditions: intracellular calcium elevated by calcium ionophore
Experimental: To the nanospheres (red fluorescent), calcium green-1 acetoxymethyl derivative was added as a fluorescent Ca^2+ indicator to give a concentration of 20 mM and mixed at room temperature for 1 hour so that it was adsorbed on the nanospheres. The unadsorbed calcium green-1 was removed by dialysis (Spectra/Por Membranes MWCO:12-14000) and buffer replacement was performed to prepare liposomes and fusogenic liposomes. 2×10^5 Ltk^−cells that had been seeded on 6-well plates one day before were washed with PBS(−) and exposed for 1 minute to the action of the calcium green-1 acetoxymethyl derivative, calcium green-1 adsorbed nanospheres, liposomes or fusogenic liposomes which were all conditioned to have the same fluorescence intensity of 2700 (Ex. 488 nm; Em, 534 nm). Thereafter, the cells were washed with PBS(−), cultured in an Eagle's MEM medium for 1 hour, stripped from the medium with trypsin and subjected to the measurement of fluorescence intensity (Ex, 488 nm; Em, 534 nm). Thereafter, a calcium ionophore/DMSO solution was added to give a concentration of 0.1 mg/mL and fluorescence intensity was measured at Ex=488 nm and Em=534 nm.

calcium green-1 acetoxymethyl derivative
fluorescence of calcium green-1 in cells: barely detectable
